According to patent publication US9655838B2, “Antimicrobial compositions comprising essential oil combinations” (priority 2013, dated 2017):
Like-named read-outs stand apart in the source and are kept apart here.

Columns and labels:
A. viscosus = test: Determination of MIC of individual essential oils (broth microdilution, O.D. at 610 nm); assay type: cell-based, A. viscosus ATCC 43146; details: for MIC: Actinomyces viscosus
Description: Minimum inhibitory concentration (MIC) is assessed as follows: A 96-well microtiter plate is inoculated with 100 μl of TSB (Tryptic Soy Broth) media in each well. Stock solutions of the active are prepared as required (w/v basis) in percent. The different stock solutions (>1%) are used to achieve the final MIC concentration of the actives. The positive control (Triclosan) is prepared as a 0.1% stock solution. Each active is diluted 1:10 using sterile TSB. 100 μl of the stock solution is added in the first column for the actives and the controls. Transfer 100 μl of the solution from the first column to the next, mix and repeat the transfer to serially dilute 2-fold across the plate. The last 100 μl is discarded. Prepare 0.2-0.3 O.D. activated culture of A. viscosus ATCC 43146 grown in TSB overnight at 37° C. Add 100 μl of the adjusted bacterial culture to each well. Incubate the plates for 24 hours at 37° C. Determine the growth by measuring the O.D. at 610 nm. The data is transferred to an Excel spreadsheet for comparison of the O.D. values. The concentration higher than the lowest concentration with large increment in O.D. is taken as the MIC. Depending on the value obtained the MIC is repeated using higher or lower concentrations of the stock solution. This gives the closest value of the concentration determined by serial dilution at which the microorganism is inhibited (MIC).

[1] = cited from earlier work
[2] = individual essential oils against A. viscosus, 24 hours at 37° C, read-out: MIC value (ppm)
[3] = Table 3, essential oil alone, read-out: Individual MIC (concentration of each essential oil alone necessary to produce the same effect)
[4] = individual essential oils against A. viscosus, 24 hours at 37° C

Row | Compound | MIC (A. viscosus; [2]) | MIC value (ppm) (A. viscosus; [4]) | also measured
1 | OCc1ccccc1 [Benzyl alcohol] | 700 µg/mL | – | –
2 | Cc1ccc(C(C)C)cc1O [Carvacrol, carvacrol] | – | – | MIC (A. viscosus; 24 h, read-out: MIC value (ppm)): 80 µg/mL; MIC (A. viscosus; read-out: Individual MIC (concentration of each essential oil alone necessary to produce the same effect)): 80 µg/mL; Individual MIC (concentration of each essential oil alone necessary to produce the same effect) (A. viscosus; Table 3, essential oil alone): 80 ppm
3 | CC(C)=CCCC(C)=CC=O [Citral] | 250 µg/mL | – | MIC (A. viscosus; [3]): 250 µg/mL
4 | CCCc1ccc(O)c(OC)c1 [Dihydro-eugenol] | – | 500 ppm | –
5 | CC12CCC(CC1)C(C)(C)O2 [Eucalyptol] | 250 µg/mL | – | –
6 | C=CCc1ccc(O)c(OC)c1 [Eugenol] | 2000 µg/mL | – | –
7 | Cc1cc(O)ccc1C(C)C [IPMP (99.8% pure)] | – | 160 ppm | –
8 | COC(=O)c1ccccc1O [Methyl salicylate] | 1000 µg/mL | – | –
9 | Cc1ccc(C(C)C)c(O)c1 [Thymol (98% pure), Thymol] | 900 µg/mL | – | MIC (A. viscosus; [3]): 900 µg/mL
10 | O=C([O-])CC(O)(CC(=O)[O-])C(=O)[O-].O=C([O-])CC(O)(CC(=O)[O-])C(=O)[O-].[Zn+2].[Zn+2].[Zn+2] [Zinc citrate] | – | 160 ppm | –
11 | [O]=[Zn] [Zinc oxide] | – | 625 ppm | –
12 | CC(C)=CCC[C@](C)(O)[C@@H]1CC=C(C)CC1 [bisabolol, α-(−)-bisabolol] | – | – | Solubility in ethanol ([1]; ethanol): soluble; Solubility in water and glycerin ([1]; water and glycerin): almost insoluble
13 | Catechins hydrate | – | 100 ppm | –
14 | α-(±)-bisabolol [Syn. Bisabolol] | – | 125 ppm | Individual MIC (concentration of each essential oil alone necessary to produce the same effect) (A. viscosus; Table 3, essential oil alone): 125 ppm
